In patent US20260027068A1, “METHODS OF ADM[…]-KETAMINE” (Perception Neuroscience, Inc., priority 2022, published 2026):

System: subjects with TRD
Assay: Adverse events (TEAEs, SAEs) in the TRD study
Type: in vivo, human
Details: 60 mg (n = 35)
Excerpt: The definitions of an AE and SAE can be found in Section F. AEs were reported by the subject (or, when appropriate, by a caregiver, surrogate, or the subject's legally authorized representative). The Investigator and any designees were responsible for detecting, documenting, and recording events that meet the definition of an AE or SAE and remained responsible for following up AEs that were serious, considered related to the study treatment or study procedures, or that caused the subject to discontinue from the study.
All AEs were collected from the signing of the ICF until the second follow-up visit (Day 15) at the time points specified in the Schedule of Activities (Section C). Medical occurrences that began before the start of study treatment but after obtaining informed consent were recorded on the Medical History/Current Medical Conditions section of the CRF, not the AE section. All SAEs were recorded and reported to the Sponsor or designee within 24 hours as indicated in Section F. The Investigator submitted any updated SAE data to the Sponsor or designee within 24 hours of it being available. Investigators were not obligated to actively seek AE or SAE information after the conclusion of study participation. However, if the Investigator learns of any SAE, including a death, at any time after a subject has been discharged from the study, and he/she considers the event to be reasonably related to the study treatment or study participation, the Investigator must promptly notify the Sponsor or designee. The method of recording, evaluating, and assessing the causality of AEs and SAEs and the procedures for completing and transmitting SAE reports are provided in Section F.
An AE is any untoward medical occurrence in a patient or subject, temporally associated with the use of study treatment, whether or not considered related to the study treatment. An AE can therefore be any unfavorable and unintended sign (including an abnormal laboratory finding), symptom, or disease (new or exacerbated) temporally associated with the use of study treatment.
If an event is not an AE per the definition above, then it cannot be an SAE even if serious conditions are met (e.g., hospitalization for signs/symptoms of the disease under study). A Serious Adverse Event (SAE) is defined as any untoward medical occurrence that, at any dose: a) results in death; b) is life-threatening; c) requires inpatient hospitalization or prolongation of existing hospitalization; d) results in persistent disability/incapacity; or e) is a congenital anomaly/birth defect. The term “life-threatening” in the definition of “serious” refers to an event in which the subject was at risk of death at the time of the event. […] In general, hospitalization signifies that the subject has been detained (usually involving at least an overnight stay) at the hospital or emergency ward for observation and/or treatment that would not have been appropriate in the physician's office or outpatient setting. Complications that occur during hospitalization are AEs. If a complication prolongs hospitalization or fulfills any other serious criteria, the event is serious. When in doubt as to whether “hospitalization” occurred or was necessary, the AE should be considered serious. […] The term disability means a substantial disruption of a person's ability to conduct normal life functions.
(MedDRA; Version 23.0 or higher). Treatment-emergent adverse events (TEAEs) are AEs with onset or worsening after the start of study treatment. The AE summaries will be primarily based on TEAEs. The number and percentage of subjects with TEAEs will be summarized by treatment group, system organ class, and preferred term for all TEAEs, treatment-related TEAEs, SAEs, serious TEAEs, severe TEAEs, TEAEs of special interest, and all TEAEs leading to study drug discontinuation. All TEAEs will be further summarized by maximum severity and causality. The TEAEs of special interest will be identified in the SAP. […]

`CN[C@@]1(c2ccccc2Cl)CCCCC1=O` [PCN 101] was tested, and the “Number of subjects with any treatment-emergent adverse events” value was 18, the “Number of treatment-emergent adverse events” value was 53 and the “Subjects with any treatment-emergent adverse events: (%) of subjects” value was “(51)”. The “TEAE PT Alopecia: (%) of subjects” value was “(3)”, the “TEAE PT Alopecia: number of subjects” value was 1 and the “TEAE PT Aversion: (%) of subjects” value was “(0)”. For the same compound, the “TEAE PT Aversion: number of subjects” value was 0, the “TEAE PT Balance disorder: (%) of subjects” value was “(0)” and the “TEAE PT Balance disorder: number of subjects” value was 0. For the same compound, the “TEAE PT Blood pressure increased: (%) of subjects” value was “(3)”, the “TEAE PT Blood pressure increased: number of subjects” value was 1 and the “TEAE PT Bruxism: (%) of subjects” value was “(0)”. The “TEAE PT Bruxism: number of subjects” value was 0, the “TEAE PT Confusional state: (%) of subjects” value was “(3)” and the “TEAE PT Confusional state: number of subjects” value was 1. For the same compound, the “TEAE PT Defect conduction intraventricular: (%) of subjects” value was “(3)”, the “TEAE PT Defect conduction intraventricular: number of subjects” value was 1 and the “TEAE PT Derealisation: (%) of subjects” value was “(9)”. For the same compound, the “TEAE PT Derealisation: number of subjects” value was 3, the “TEAE PT Diarrhoea: (%) of subjects” value was “(0)” and the “TEAE PT Diarrhoea: number of subjects” value was 0. For the same compound, the “TEAE PT Dissociation: (%) of subjects” value was “(0)”, the “TEAE PT Dissociation: number of subjects” value was 0 and the “TEAE PT Dizziness: (%) of subjects” value was “(20)”. For the same compound, the “TEAE PT Dizziness: number of subjects” value was 7, the “TEAE PT Dry mouth: (%) of subjects” value was “(3)” and the “TEAE PT Dry mouth: number of subjects” value was 1. For the same compound, the “TEAE PT Dysarthria: (%) of subjects” value was “(6)”, the “TEAE PT Dysarthria: number of subjects” value was 2 and the “TEAE PT Dyspnoea exertional: (%) of subjects” value was “(0)”. For the same compound, the “TEAE PT Dyspnoea exertional: number of subjects” value was 0, the “TEAE PT Energy increased: (%) of subjects” value was “(3)” and the “TEAE PT Energy increased: number of subjects” value was 1. For the same compound, the “TEAE PT Euphoric mood: (%) of subjects” value was “(3)”, the “TEAE PT Euphoric mood: number of subjects” value was 1 and the “TEAE PT Fatigue: (%) of subjects” value was “(3)”. The “TEAE PT Fatigue: number of subjects” value was 1, the “TEAE PT Feeling abnormal: (%) of subjects” value was “(3)” and the “TEAE PT Feeling abnormal: number of subjects” value was 1. For the same compound, the “TEAE PT Feeling drunk: (%) of subjects” value was “(6)”, the “TEAE PT Feeling drunk: number of subjects” value was 2 and the “TEAE PT Haematuria: (%) of subjects” value was “(0)”. The “TEAE PT Haematuria: number of subjects” value was 0, the “TEAE PT Headache: (%) of subjects” value was “(6)” and the “TEAE PT Headache: number of subjects” value was 2. For the same compound, the “TEAE PT Hyperacusis: (%) of subjects” value was “(0)”, the “TEAE PT Hyperacusis: number of subjects” value was 0 and the “TEAE PT Hyperhidrosis: (%) of subjects” value was “(0)”. For the same compound, the “TEAE PT Hyperhidrosis: number of subjects” value was 0, the “TEAE PT Hyperphagia: (%) of subjects” value was “(3)” and the “TEAE PT Hyperphagia: number of subjects” value was 1. For the same compound, the “TEAE PT Hypoaesthesia oral: (%) of subjects” value was “(3)”, the “TEAE PT Hypoaesthesia oral: number of subjects” value was 1 and the “TEAE PT Hypoaesthesia: (%) of subjects” value was “(0)”. The “TEAE PT Hypoaesthesia: number of subjects” value was 0, the “TEAE PT Increased appetite: (%) of subjects” value was “(3)” and the “TEAE PT Increased appetite: number of subjects” value was 1. The “TEAE PT Influenza like illness: (%) of subjects” value was “(0)”, the “TEAE PT Influenza like illness: number of subjects” value was 0 and the “TEAE PT Infusion site hypoaesthesia: (%) of subjects” value was “(3)”. The “TEAE PT Infusion site hypoaesthesia: number of subjects” value was 1, the “TEAE PT Left ventricular hypertrophy: (%) of subjects” value was “(3)” and the “TEAE PT Left ventricular hypertrophy: number of subjects” value was 1. For the same compound, the “TEAE PT Lethargy: (%) of subjects” value was “(3)”, the “TEAE PT Lethargy: number of subjects” value was 1 and the “TEAE PT Limb discomfort: (%) of subjects” value was “(0)”. The “TEAE PT Limb discomfort: number of subjects” value was 0, the “TEAE PT Logorrhoea: (%) of subjects” value was “(0)” and the “TEAE PT Logorrhoea: number of subjects” value was 0. For the same compound, the “TEAE PT Memory impairment: (%) of subjects” value was “(0)”, the “TEAE PT Memory impairment: number of subjects” value was 0 and the “TEAE PT Muscle strain: (%) of subjects” value was “(0)”. The “TEAE PT Muscle strain: number of subjects” value was 0, the “TEAE PT Muscular weakness: (%) of subjects” value was “(3)” and the “TEAE PT Muscular weakness: number of subjects” value was 1. The “TEAE PT Nausea: (%) of subjects” value was “(9)”, the “TEAE PT Nausea: number of subjects” value was 3 and the “TEAE PT Paraesthesia: (%) of subjects” value was “(6)”. For the same compound, the “TEAE PT Paraesthesia: number of subjects” value was 2, the “TEAE PT Rhinorrhoea: (%) of subjects” value was “(0)” and the “TEAE PT Rhinorrhoea: number of subjects” value was 0. For the same compound, the “TEAE PT Sedation: (%) of subjects” value was “(3)”, the “TEAE PT Sedation: number of subjects” value was 1 and the “TEAE PT Sensory disturbance: (%) of subjects” value was “(0)”. For the same compound, the “TEAE PT Sensory disturbance: number of subjects” value was 0, the “TEAE PT Sinusitis: (%) of subjects” value was “(0)” and the “TEAE PT Sinusitis: number of subjects” value was 0. The “TEAE PT Skin abrasion: (%) of subjects” value was “(3)”, the “TEAE PT Skin abrasion: number of subjects” value was 1 and the “TEAE PT Slow speech: (%) of subjects” value was 0). For the same compound, the “TEAE PT Slow speech: number of subjects” value was 0, the “TEAE PT Smoke sensitivity: (%) of subjects” value was “(3)” and the “TEAE PT Smoke sensitivity: number of subjects” value was 1. The “TEAE PT Somnolence: (%) of subjects” value was “(11)”, the “TEAE PT Somnolence: number of subjects” value was 4 and the “TEAE PT Tachycardia: (%) of subjects” value was “(0)”. The “TEAE PT Tachycardia: number of subjects” value was 0, the “TEAE PT Throat tightness: (%) of subjects” value was “(3)” and the “TEAE PT Throat tightness: number of subjects” value was 1. The “TEAE PT Time perception altered: (%) of subjects” value was “(3)”, the “TEAE PT Time perception altered: number of subjects” value was 1 and the “TEAE PT Urinary tract infection: (%) of subjects” value was “(0)”. For the same compound, the “TEAE PT Urinary tract infection: number of subjects” value was 0, the “TEAE PT Venous injury: (%) of subjects” value was “(0)” and the “TEAE PT Venous injury: number of subjects” value was 0. For the same compound, the “TEAE PT Vertigo: (%) of subjects” value was “(0)”, the “TEAE PT Vertigo: number of subjects” value was 0 and the “TEAE PT Vessel puncture site erythema: (%) of subjects” value was “(0)”. For the same compound, the “TEAE PT Vessel puncture site erythema: number of subjects” value was 0, the “TEAE PT Vision blurred: (%) of subjects” value was “(3)” and the “TEAE PT Vision blurred: number of subjects” value was 1. For the same compound, the “TEAE PT Visual impairment: (%) of subjects” value was “(0)”, the “TEAE PT Visual impairment: number of subjects” value was 0 and the “TEAE SOC Cardiac disorders: (%) of subjects” value was “(6)”. The “TEAE SOC Cardiac disorders: number of subjects” value was 2, the “TEAE SOC Ear and labyrinth disorders: (%) of subjects” value was “(0)” and the “TEAE SOC Ear and labyrinth disorders: number of subjects” value was 0. For the same compound, the “TEAE SOC Eye disorders: (%) of subjects” value was “(3)”, the “TEAE SOC Eye disorders: number of subjects” value was 1 and the “TEAE SOC Gastrointestinal disorders: (%) of subjects” value was “(14)”. The “TEAE SOC Gastrointestinal disorders: number of subjects” value was 5, the “TEAE SOC General disorders and administration site conditions: (%) of subjects” value was “(11)” and the “TEAE SOC General disorders and administration site conditions: number of subjects” value was 4. The “TEAE SOC Immune system disorders: (%) of subjects” value was “(3)”, the “TEAE SOC Immune system disorders: number of subjects” value was 1 and the “TEAE SOC Infections and infestations: (%) of subjects” value was “(0)”. The “TEAE SOC Infections and infestations: number of subjects” value was 0, the “TEAE SOC Injury, poisoning and procedural complications: (%) of subjects” value was “(3)” and the “TEAE SOC Injury, poisoning and procedural complications: number of subjects” value was 1. For the same compound, the “TEAE SOC Investigations: (%) of subjects” value was “(3)”, the “TEAE SOC Investigations: number of subjects” value was 1 and the “TEAE SOC Metabolism and nutrition disorders: (%) of subjects” value was “(3)”. The “TEAE SOC Metabolism and nutrition disorders: number of subjects” value was 1, the “TEAE SOC Musculoskeletal and connective tissue disorders: (%) of subjects” value was “(3)” and the “TEAE SOC Musculoskeletal and connective tissue disorders: number of subjects” value was 1. For the same compound, the “TEAE SOC Nervous system disorders: (%) of subjects” value was “(40)”, the “TEAE SOC Nervous system disorders: number of subjects” value was 14 and the “TEAE SOC Psychiatric disorders: (%) of subjects” value was “(14)”. The “TEAE SOC Psychiatric disorders: number of subjects” value was 5, the “TEAE SOC Renal and urinary disorders: (%) of subjects” value was “(0)” and the “TEAE SOC Renal and urinary disorders: number of subjects” value was 0. The “TEAE SOC Respiratory, thoracic and mediastinal disorders: (%) of subjects” value was “(3)”, the “TEAE SOC Respiratory, thoracic and mediastinal disorders: number of subjects” value was 1 and the “TEAE SOC Skin and subcutaneous tissue disorders: (%) of subjects” value was “(3)”. The “TEAE SOC Skin and subcutaneous tissue disorders: number of subjects” value was 1.
